Data reported in publication PMC7034070, “Synthesis, anti-inflammatory, cytotoxic, and COX-1/2 inhibitory activities of cyclic imides bearing 3-benzenesulfonamide, oxime, and β-phenylalanine scaffolds: a molecular docking study” (Journal of Enzyme Inhibition and Medicinal Chemistry, 2020).
pIC50: −log10 of the molar value. Where “and” joins values, the source holds several entries; their conditions need not be identical. Equal values may be shown once.

Tests used:
[1] = tested on: carrageenan induced rat paw oedema; test: rat carrageenan-induced foot paw oedema model; type: in vivo; conditions: for Mean % increase in paw weight ± SEM / % Inhibition of paw oedema from control group: 2 h after carrageenan; for Mean % increase in paw weight ± SEM: control group 165.6 ± 1.6; for % Inhibition of paw oedema from control group: single dose screen (Table 1); for ED50: from three graded doses (45, 65, 80 mg/kg)
Procedure: Anti-inflammatory assessment of the newly synthesised compounds was carried out using an in vivo rat carrageenan-induced foot paw oedema model, as reported previously[16]^,[17].

mice = test: Ulcerogenicity measurement; type: in vivo; conditions: for Average number of ulcers / Mean sum of lengths of elongated ulcer: mice; for Mean sum of lengths of elongated ulcer: ± SEM; for level of ulcerogenic activity (in words): relative to diclofenac and celecoxib
Procedure: Ulcerogenicity was evaluated according to a previously reported method[6]^a,[17]^,[18]. The number and total length of the ulcers for each animal were measured and their averages were calculated and used as the ulcer indices.

COX-2 = biological target: T1, COX-2 (Ovis aries, UniProt P79208); test: colorimetric COX (ovine) inhibitor screening assay kit; type: biochemical; conditions: for SI, selectivity index (COX-1 IC50/COX-2 IC50): ovine COX-1/COX-2; for pIC50: ovine COX-2, mean of two determinations
T1 construct: purchased Cayman Chemicals Inc., Ann Arbour, MI
T1 sequence (P79208 17-603): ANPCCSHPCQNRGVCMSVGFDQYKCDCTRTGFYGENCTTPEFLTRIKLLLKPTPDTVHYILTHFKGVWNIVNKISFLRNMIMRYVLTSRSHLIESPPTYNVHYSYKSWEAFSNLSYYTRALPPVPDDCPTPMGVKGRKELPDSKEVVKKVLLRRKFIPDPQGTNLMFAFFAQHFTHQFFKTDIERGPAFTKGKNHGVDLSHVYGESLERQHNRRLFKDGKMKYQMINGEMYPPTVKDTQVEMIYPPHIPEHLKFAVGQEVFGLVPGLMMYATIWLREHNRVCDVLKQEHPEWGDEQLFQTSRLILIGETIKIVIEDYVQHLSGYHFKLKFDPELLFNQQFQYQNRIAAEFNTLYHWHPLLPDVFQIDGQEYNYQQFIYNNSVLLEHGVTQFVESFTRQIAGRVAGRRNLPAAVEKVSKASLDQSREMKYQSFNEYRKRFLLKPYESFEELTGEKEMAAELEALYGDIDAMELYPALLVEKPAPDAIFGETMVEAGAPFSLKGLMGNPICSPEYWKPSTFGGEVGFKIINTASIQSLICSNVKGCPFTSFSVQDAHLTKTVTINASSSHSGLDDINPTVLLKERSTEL
Text: (§1) To determine the relative ability of the test compounds and reference drugs to inhibit COX-1/COX-2 isozymes, we used the colorimetric COX (ovine) inhibitor screening assay kit (Cayman Chemicals Inc., Ann Arbour, MI), according to the manufacturer’s instructions[3]^,[10]^,[11]^,[20].

COX-1 = biological target: T2, COX-1 (Ovis aries, UniProt P05979); test: as above; type: biochemical; conditions: ovine COX-1, mean of two determinations
T2 construct: purchased Cayman Chemicals Inc., Ann Arbour, MI
T2 sequence (P05979 25-600): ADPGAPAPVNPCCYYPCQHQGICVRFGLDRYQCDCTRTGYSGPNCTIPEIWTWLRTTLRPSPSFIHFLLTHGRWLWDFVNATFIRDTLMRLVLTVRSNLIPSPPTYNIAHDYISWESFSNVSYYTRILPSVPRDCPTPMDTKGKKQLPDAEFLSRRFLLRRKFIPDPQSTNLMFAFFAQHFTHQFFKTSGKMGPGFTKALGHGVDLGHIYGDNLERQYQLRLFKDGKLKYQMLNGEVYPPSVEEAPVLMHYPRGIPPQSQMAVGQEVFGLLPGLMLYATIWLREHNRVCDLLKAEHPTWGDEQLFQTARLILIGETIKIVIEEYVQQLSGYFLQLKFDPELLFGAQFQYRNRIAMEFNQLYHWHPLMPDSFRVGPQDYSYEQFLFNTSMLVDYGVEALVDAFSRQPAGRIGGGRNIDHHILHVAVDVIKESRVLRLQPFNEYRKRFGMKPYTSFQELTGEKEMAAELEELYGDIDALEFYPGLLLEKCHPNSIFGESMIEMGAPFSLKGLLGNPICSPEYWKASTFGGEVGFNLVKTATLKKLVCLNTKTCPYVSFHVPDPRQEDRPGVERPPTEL
Text: as §1

Compound	Mean % increase in paw weight ± SEM [1]	% Inhibition of paw oedema from control group [1]	% Inhibition of paw oedema from control group ([1]; listed as celecoxib)	Percentage inhibition of paw oedema from control group ([1]; dose 45 mg/kg)	Percentage inhibition of paw oedema from control group ([1]; dose 65 mg/kg)	Percentage inhibition of paw oedema from control group ([1]; dose 80 mg/kg)	ED50 [1]	Average number of ulcers (mice)	Mean sum of lengths of elongated ulcer (mice)	melting point	level of ulcerogenic activity (in words) (mice)	SI, selectivity index (COX-1 IC50/COX-2 IC50) (COX-2)	pIC50 (COX-2)	pIC50 (COX-1)
Cc1ccc(-c2cc(C(F)(F)F)nn2-c2ccc(S(N)(=O)=O)cc2)cc1 [Celecoxib, 4-[5-(4-methylphenyl)-3-(trifluoromethyl)-1H-pyrazol-1-yl]benzenesulfonamide, reference compound]	27.3 ± 0.4%	85.6 ± 0.4%	85.6%	69.8%	85.6%	93.5%	34.1 mg/kg	5	5.8 ± 0.77 mm	–	–	–	–	–
NS(=O)(=O)c1cccc(N2C(=O)c3cc(Cl)c(Cl)cc3C2=O)c1 [Compound 7, 3-(5,6-Dichloro-1,3-dioxoisoindolin-2-yl)benzenesulfonamide]	129.7 ± 0.9%	29.7% and 29.7 ± 0.2%	–	–	–	–	–	–	–	256 to 258 °C	–	–	–	–
NS(=O)(=O)c1cccc(N2C(=O)c3ccc([N+](=O)[O-])cc3C2=O)c1 [Compound 9]	35.6 ± 0.1%	80.9% and 80.9 ± 0.9%	–	69.8%	80.9%	90.5%	37 mg/kg	4	1.7 ± 0.21 mm	–	very low levels of ulcerogenic activity	>333.3	6.82	< 4.30
C/C(=N/O)c1ccc(N2C(=O)C3CC=CCC3C2=O)cc1 (stereo not drawn) [Compound 12]	37.5 ± 0.5%	79.7% and 79.7 ± 0.4%	–	65.3%	79.7%	87.4%	39.2 mg/kg	5	2.4 ± 0.13 mm	–	ulcerogenic level similar to celecoxib and less than that of diclofenac	>312.5	6.80	< 4.30
C/C(=N/O)c1ccc(N2C(=O)c3ccccc3C2=O)cc1 [Compound 13]	36.2 ± 0.2%	80.4% and 80.4 ± 0.7%	–	67.9%	80.4%	91.1%	37.5 mg/kg	5	2.1 ± 0.23 mm	–	ulcerogenic level similar to celecoxib and less than that of diclofenac	>312.5	6.80	< 4.30
C/C(=N/O)c1ccc(N2C(=O)c3ccc(C)cc3C2=O)cc1 [Compound 14]	70.8 ± 0.6%	61.6% and 61.6 ± 0.5%	–	–	–	–	–	–	–	–	–	>62.5	6.10	< 4.30
C/C(=N/O)c1ccc(N2C(=O)c3ccc(C(C)(C)C)cc3C2=O)cc1 [Compound 15]	95.7 ± 0.9%	48.1% and 48.1 ± 0.2%	–	–	–	–	–	–	–	–	–	>14.3	5.46	< 4.30
C/C(=N/O)c1ccc(N2C(=O)c3cc(Cl)c(Cl)cc3C2=O)cc1 [Compound 16]	115.3 ± 1.2%	39.6% and 39.6 ± 0.4%	–	–	–	–	–	–	–	–	–	–	–	–
C/C(=N/O)c1ccc(N2C(=O)c3c(Cl)c(Cl)c(Cl)c(Cl)c3C2=O)cc1 [Compound 17]	135.6 ± 0.8%	25.1% and 25.1 ± 0.6%	–	–	–	–	–	–	–	–	–	–	–	–
O=C(O)CC(c1ccccc1)N1C(=O)C2CC=CCC2C1=O (stereo not drawn) [Compound 22]	69.1 ± 0.5%	62.9 ± 0.4%	–	–	–	–	–	–	–	–	–	0.46	4.60	4.94
O=C(O)CC(c1ccccc1)N1C(=O)c2ccccc2C1=O (stereo not drawn) [Compound 23]	65.6 ± 0.3%	64.4% and 64.4 ± 0.7%	–	–	–	–	–	–	–	–	–	0.49	4.65	4.96
Cc1ccc2c(c1)C(=O)N(C(CC(=O)O)c1ccccc1)C2=O (stereo not drawn) [Compound 24]	123.4 ± 0.9%	33.1 ± 0.4%	–	–	–	–	–	–	–	–	–	0.68	4.44	4.61
CC(C)(C)c1ccc2c(c1)C(=O)N(C(CC(=O)O)c1ccccc1)C2=O (stereo not drawn) [Compound 25, 3-(5-(tert-Butyl)-1,3-dioxoisoindolin-2-yl)-3-phenylpropanoic acid]	129.0 ± 1.1%	29.6 ± 0.7%	–	–	–	–	–	–	–	119 to 121 °C	–	–	–	–
O=C(O)CC(c1ccccc1)N1C(=O)c2cc(Cl)c(Cl)cc2C1=O (stereo not drawn) [Compound 26, 3-(5,6-Dichloro-1,3-dioxoisoindolin-2-yl)-3-phenylpropanoic acid]	136.3 ± 0.8%	24.4 ± 0.3%	–	–	–	–	–	–	–	205 to 207 °C	–	–	–	–
O=C(O)CC(c1ccccc1)N1C(=O)c2c(Cl)c(Cl)c(Cl)c(Cl)c2C1=O (stereo not drawn) [Compound 27, 3-Phenyl-3-(4,5,6,7-tetrachloro-1,3-dioxoisoindolin-2-yl)propanoic acid]	141.6 ± 1.0%	21.2 ± 0.9%	–	–	–	–	–	–	–	280 to 282 °C	–	–	–	–
O=C(O)CC(c1ccccc1)N1C(=O)c2cccc3cccc(c23)C1=O (stereo not drawn) [Compound 29, 3-(1,3-Dioxo-1H-benzo[de]isoquinolin-2(3H)-yl)-3-phenylpropanoic acid]	130.8 ± 0.7%	27.0% and 27.0 ± 0.1%	–	–	–	–	–	–	–	151 to 153 °C	–	–	–	–
O=C(O)Cc1ccccc1Nc1c(Cl)cccc1Cl [Diclofenac, reference compound]	30.1 ± 0.3%	83.4% and 83.4 ± 0.5%	–	–	–	–	–	10	7.6 ± 0.89 mm	–	–	–	–	–
